Data from PMC5004176, “The antifungal plant defensin AtPDF2.3 from Arabidopsis thaliana blocks potassium channels” (Scientific Reports, 2016).
Ends that are not written are not given here.

Legend:
[1] = tested on: Fusarium graminearum PH-1; type: cell-based; conditions: read-out: IC50 (growth inhibition)
Kv4.2 = assay: Two-electrode voltage-clamp on Kv4.2 expressed in X. laevis oocytes; conditions: 3 μM, n ≥ 3
Description: (§1) For the expression of the voltage-gated potassium channels (rKv1.1, rKv1.2, hKv1.3, rKv1.4, rKv1.5, rKv1.6, Shaker IR, hKv3.1, rKv4.3, and hERG) in Xenopus laevis oocytes, the linearized plasmids were transcribed using the T7 or SP6 mMESSAGE-mMACHINE transcription kit (Ambion). The harvesting of stage V–VI oocytes from an anaesthetized female X. laevis frog was previously described[59]. Oocytes were injected with 50 nL of cRNA at a concentration of 1 ng/nL using a micro-injector (Drummond Scientific, USA). The oocytes were incubated in a solution containing (in mM): NaCl, 96; KCl, 2; CaCl2, 1.8; MgCl2, 2 and HEPES, 5 (pH 7.4), supplemented with 50 mg/L gentamycin sulfate.
(§2) Two-electrode voltage-clamp recordings were performed at room temperature (18–22 °C) using a Geneclamp 500 amplifier (Molecular Devices, USA) controlled by a pClamp data acquisition system (Axon Instruments, USA). Whole cell currents from oocytes were recorded 1–4 days after injection. Bath solution composition was ND96 (in mM): NaCl, 96; KCl, 2; CaCl2, 1.8; MgCl2, 2 and HEPES, 5 (pH 7.4) or HK (in mM): NaCl, 2; KCl, 96; CaCl2, 1.8; MgCl2, 2 and HEPES, 5 (pH 7.4). Voltage and current electrodes were filled with 3 M KCl. Resistances of both electrodes were kept between 0.7 and 1.5 MΩ. […] GV curves were calculated from IV relationships as follows: gK = IK/(Em−EK) with EK = (RT/zF)ln[K #0]o/[K #0]i. […]

Botrytis cinerea R16 = assay: Fungal growth inhibitory assay; type: cell-based; conditions: half strength PDB, 10^4 spores/mL, 48 hours, determined microscopically, n ≥ 3; read-out: IC50 (growth inhibition)
Nav1.2 = assay: Two-electrode voltage-clamp on Nav1.2 expressed in X. laevis oocytes; type: cell-based; conditions: 5 μM, n ≥ 4
[2] = tested on: Saccharomyces cerevisiae BY4741 ∆trk1; assay: Yeast growth inhibitory assay; type: cell-based; conditions: BY4741 ∆trk1, MM medium, 24 hours, OD490nm, mean ± SEM, n ≥ 3; read-out: IC50 (growth inhibition)
Fusarium oxysporum = assay: Fungal growth inhibitory assay; type: cell-based; conditions: half strength PDB, 10^4 spores/mL, 48 hours, determined microscopically, n ≥ 3; read-out: IC50 (growth inhibition)
plant pathogenic fungi = assay: Fungal growth inhibitory assay, whole panel; type: cell-based; conditions: range over the fungal panel of Table 1, 48 hours; read-out: IC50 values against all plant pathogenic fungi tested (range)
Kv1.4 = assay: Two-electrode voltage-clamp on Kv1.4 expressed in X. laevis oocytes; conditions: 3 μM, n ≥ 3
Description: as §1, §2

Kv1.6 channels = assay: Two-electrode voltage-clamp on Kv1.6 expressed in X. laevis oocytes; conditions: n ≥ 3
Description: as §1
(§3) Two-electrode voltage-clamp recordings were performed at room temperature (18–22 °C) using a Geneclamp 500 amplifier (Molecular Devices, USA) controlled by a pClamp data acquisition system (Axon Instruments, USA). Whole cell currents from oocytes were recorded 1–4 days after injection. Bath solution composition was ND96 (in mM): NaCl, 96; KCl, 2; CaCl2, 1.8; MgCl2, 2 and HEPES, 5 (pH 7.4) or HK (in mM): NaCl, 2; KCl, 96; CaCl2, 1.8; MgCl2, 2 and HEPES, 5 (pH 7.4). Voltage and current electrodes were filled with 3 M KCl. Resistances of both electrodes were kept between 0.7 and 1.5 MΩ. The elicited currents were filtered at 0.5 kHz and sampled at 2 kHz (for potassium currents) or filtered at 2 kHz and sampled at 20 kHz (for sodium currents) using a four-pole low-pass Bessel filter. Leak subtraction was performed using a -P/4 protocol. Kv1.1–Kv1.6 and Shaker currents were evoked by 250 ms depolarizations to 0 mV followed by a 250 ms pulse to −50 mV, from a holding potential of −90 mV. Current traces of hERG channels were elicited by applying a +40 mV prepulse for 2 s followed by a step to −120 mV for 2 s. […] In order to investigate the current–voltage relationship, current traces were evoked by 10 mV depolarization steps from a holding potential of −90 mV. To assess the concentration dependency of the toxin induced inhibitory effects, a concentration–response curve was constructed, in which the percentage of current inhibition was plotted as a function of toxin concentration. Data were fitted with the Hill equation: y = 100/[1 + (IC50/[toxin])^h], were y is the amplitude of the toxin-induced effect, IC50 is the toxin concentration at half-maximal efficacy, [toxin] is the toxin concentration, and h is the Hill coefficient. GV curves were calculated from IV relationships as follows: gK = IK/(Em−EK) with EK = (RT/zF)ln[K #0]o/[K #0]i. In these equations gK represents the conductance, IK the potassium current, Em the membrane potential, EK the reversal potential, R the gas constant (8.31 J/K mol), T the temperature, z the charge of the ion (for K+ ions: z = 1), F the Faraday’s constant (96.500 C/mol), [K #0]o and [K #0]i respectively are the extracellular and intracellular K+ ion concentrations. The values of IK or gK were plotted as function of voltage and fitted using the Boltzmann equation: gK/gmax = [1 + exp(Vg−V)/k]−1, were gmax represents maximal gK, Vg is the voltage corresponding to half-maximal conductance, and k is the slope factor. Comparison of two sample means was made using a paired Student’s t test (P < 0.05). All data represent at least three independent experiments (n ≥ 3) and are presented as mean ± standard error.

Botrytis cinerea B05.10 = assay: Fungal growth inhibitory assay; type: cell-based; conditions: half strength PDB, 10^4 spores/mL, 48 hours, determined microscopically, n ≥ 3; read-out: IC50 (growth inhibition)
Fusarium culmorum = assay: Fungal growth inhibitory assay; type: cell-based; conditions: half strength PDB, 10^4 spores/mL, 48 hours, determined microscopically, n ≥ 3; read-out: IC50 (growth inhibition)
[3] = tested on: Saccharomyces cerevisiae BY4741 ∆nha1; assay: Yeast growth inhibitory assay; type: cell-based; conditions: BY4741 ∆nha1, MM medium, 24 hours, OD490nm, mean ± SEM, n ≥ 3; read-out: IC50 (growth inhibition)
Verticillium dahliae = assay: Fungal growth inhibitory assay; type: cell-based; conditions: half strength PDB, 10^4 spores/mL, 48 hours, determined microscopically, n ≥ 3; read-out: IC50 (growth inhibition)
Nav1.4 = assay: Two-electrode voltage-clamp on Nav1.4 expressed in X. laevis oocytes; type: cell-based; conditions: 5 μM, n ≥ 4
[4] = tested on: Saccharomyces cerevisiae BY4741 ∆trk2; assay: Yeast growth inhibitory assay; type: cell-based; conditions: BY4741 ∆trk2, MM medium, 24 hours, OD490nm, mean ± SEM, n ≥ 3; read-out: IC50 (growth inhibition)
hERG (Kv11.1) = assay: Two-electrode voltage-clamp on hERG expressed in X. laevis oocytes; conditions: 3 μM, n ≥ 3
Description: as §1, §2

[5] = tested on: Saccharomyces cerevisiae BY4741 ∆hal5; assay: Yeast growth inhibitory assay; type: cell-based; conditions: BY4741 ∆hal5, MM medium, 24 hours, OD490nm, mean ± SEM, n ≥ 3; read-out: IC50 (growth inhibition)
[6] = tested on: Saccharomyces cerevisiae BY4741 ∆ppz2; assay: Yeast growth inhibitory assay; type: cell-based; conditions: BY4741 ∆ppz2, MM medium, 24 hours, OD490nm, mean ± SEM, n ≥ 3; read-out: IC50 (growth inhibition)
Shaker IR = assay: Two-electrode voltage-clamp on Shaker IR expressed in X. laevis oocytes; conditions: 3 μM, n ≥ 3
Description: as §1, §2

[7] = tested on: Saccharomyces cerevisiae BY4741 ∆arl1; assay: Yeast growth inhibitory assay; type: cell-based; conditions: BY4741 ∆arl1, MM medium, 24 hours, OD490nm, mean ± SEM, n ≥ 3; read-out: IC50 (growth inhibition)
Nav1.5 = assay: Two-electrode voltage-clamp on Nav1.5 expressed in X. laevis oocytes; type: cell-based; conditions: 5 μM, n ≥ 4
[8] = tested on: Saccharomyces cerevisiae BY4741 ∆sat4; assay: Yeast growth inhibitory assay; type: cell-based; conditions: BY4741 ∆sat4, MM medium, 24 hours, OD490nm, mean ± SEM, n ≥ 3; read-out: IC50 (growth inhibition)
[9] = tested on: Saccharomyces cerevisiae BY4741 ∆qdr2; assay: Yeast growth inhibitory assay; type: cell-based; conditions: BY4741 ∆qdr2, MM medium, 24 hours, OD490nm, mean ± SEM, n ≥ 3; read-out: IC50 (growth inhibition)
[10] = tested on: Saccharomyces cerevisiae BY4741 ∆kch1; assay: Yeast growth inhibitory assay; type: cell-based; conditions: BY4741 ∆kch1, MM medium, 24 hours, OD490nm, mean ± SEM, n ≥ 3; read-out: IC50 (growth inhibition)
[11] = tested on: Saccharomyces cerevisiae BY4741 ∆tok1; assay: Yeast growth inhibitory assay; type: cell-based; conditions: BY4741 ∆tok1, MM medium, 24 hours, OD490nm, mean ± SEM, n ≥ 3; read-out: IC50 (growth inhibition)
[12] = tested on: Saccharomyces cerevisiae BY4741 ∆prm6; assay: Yeast growth inhibitory assay; type: cell-based; conditions: BY4741 ∆prm6, MM medium, 24 hours, OD490nm, mean ± SEM, n ≥ 3; read-out: IC50 (growth inhibition)
Kv1.2 channels = assay: Two-electrode voltage-clamp on Kv1.2 expressed in X. laevis oocytes; conditions: for inhibition of the potassium current: Kv1.2, n ≥ 5
Description: as §1, §3

[13] = tested on: Saccharomyces cerevisiae BY4743 ∆frq1; assay: Yeast growth inhibitory assay; type: cell-based; conditions: BY4743 ∆frq1, MM medium, 24 hours, OD490nm, mean ± SEM, n ≥ 3; read-out: IC50 (growth inhibition)
[14] = tested on: Saccharomyces cerevisiae BY4741 WT; assay: Yeast growth inhibitory assay; type: cell-based; conditions: MM medium, ~10^6 cells/mL, 24 hours, OD490nm, mean ± SEM, n ≥ 3, read-out: IC50 (growth inhibition)
[15] = tested on: Saccharomyces cerevisiae BY4741 ∆ppz1; assay: Yeast growth inhibitory assay; type: cell-based; conditions: BY4741 ∆ppz1, MM medium, 24 hours, OD490nm, mean ± SEM, n ≥ 3; read-out: IC50 (growth inhibition)
Kv1.1 = assay: Two-electrode voltage-clamp on Kv1.1 expressed in X. laevis oocytes; conditions: 3 μM, n ≥ 3
Description: as §1, §2

rAtPDF2.3: Arabidopsis thaliana plant defensin AtPDF2.3 produced recombinantly in Pichia pastoris (RTCESKSHRFKGPCVSTHNCANVCHNEGFGGGKCRGFRRRCYCTRHC; ends and bridges not checked; cysteine pairing not given here)
IC50 [1]: 1400 nM
activity on Kv4.2 (Shal) at single concentration (Kv4.2): no effect
IC50 (Botrytis cinerea R16): 5.8 µM
activity on Nav1.2 (Nav1.2): does not show activity
IC50 [2]: 1500 nM
IC50 (Fusarium oxysporum): 4.4 ± 1.6 µM
IC50 (plant pathogenic fungi): 1 to 5.8 µM
activity on Kv1.4 at single concentration (Kv1.4): no effect
activity on Kv1.6 at single concentration (Kv1.6 channels; 3 μM): can block
IC50 (Kv1.6 channels; read-out: IC50 for Kv1.6, two-electrode voltage-clamp, X. laevis oocytes, concentration-response curve fitted with Hill equation, mean ± standard error): 978 ± 113 nM
IC50 (Botrytis cinerea B05.10): 5.8 µM
IC50 (Fusarium culmorum): 1000 ± 400 nM
IC50 [3]: 9.1 ± 0.7 µM
IC50 (Verticillium dahliae): 4.4 ± 1.6 µM
activity on Nav1.4 (Nav1.4): does not show activity
IC50 [4]: 7 ± 0.6 µM
activity on hERG (Kv11.1) at single concentration (hERG (Kv11.1)): no effect
IC50 [5]: 4 ± 0.4 µM
IC50 [6]: 8.6 ± 0.5 µM
activity on Shaker IR at single concentration (Shaker IR): no effect
IC50 [7]: 5.7 ± 0.2 µM
activity on Nav1.5 (Nav1.5): does not show activity
IC50 [8]: 5.1 ± 0.1 µM
IC50 [9]: 2900 ± 200 nM
IC50 [10]: 8.9 ± 0.3 µM
IC50 [11]: 7.7 ± 0.5 µM
IC50 [12]: 7.6 ± 0.2 µM
inhibition of the potassium current (Kv1.2 channels; 2 μM, HK solution): 66 ± 4%
inhibition of the potassium current (Kv1.2 channels; 2 μM, ND96 solution): 59 ± 3%
activity on Kv1.2 at single concentration (Kv1.2 channels; 3 μM, n ≥ 3): can block
reversal potential EK after application of defensin (Kv1.2 channels; HK solution, 2 μM, Kv1.2, control −4 ± 1 mV, P > 0.05, n ≥ 4): −2 ± 1 mV
V1/2 of gV curve in the presence of defensin (Kv1.2 channels; ND96, 2 μM, Kv1.2, control 8 ± 3 mV, n ≤ 4 as printed): 5 ± 2 mV
reversibility of Kv1.2 block upon washout (Kv1.2 channels; current recovers quickly and completely upon washout (data not shown)): blocking is reversible
IC50 (Kv1.2 channels; read-out: IC50 for Kv1.2, two-electrode voltage-clamp, X. laevis oocytes, concentration-response curve fitted with Hill equation, mean ± standard error, n ≥ 3): 1300 ± 200 nM
voltage dependence of inhibition of Kv1.2 channels (Kv1.2 channels; test potentials from −30 to +30 mV): not voltage-dependent
IC50 [13]: 3.1 ± 0.1 µM
IC50 [14]: 8.1 ± 0.9 µM
IC50 [15]: 10.1 ± 0.5 µM
activity on Kv1.1 at single concentration (Kv1.1): no effect
